Test [1] concerns the target T1, rP2X2 K69C/H319K double mutant (Rattus norvegicus, UniProt P49653, H319K/K69C).
T1 construct: expressed in transfected cells; host or cells: Xenopus laevis oocytes (RNA injection)
T1 sequence (P49653 1-472 K69C/H319K): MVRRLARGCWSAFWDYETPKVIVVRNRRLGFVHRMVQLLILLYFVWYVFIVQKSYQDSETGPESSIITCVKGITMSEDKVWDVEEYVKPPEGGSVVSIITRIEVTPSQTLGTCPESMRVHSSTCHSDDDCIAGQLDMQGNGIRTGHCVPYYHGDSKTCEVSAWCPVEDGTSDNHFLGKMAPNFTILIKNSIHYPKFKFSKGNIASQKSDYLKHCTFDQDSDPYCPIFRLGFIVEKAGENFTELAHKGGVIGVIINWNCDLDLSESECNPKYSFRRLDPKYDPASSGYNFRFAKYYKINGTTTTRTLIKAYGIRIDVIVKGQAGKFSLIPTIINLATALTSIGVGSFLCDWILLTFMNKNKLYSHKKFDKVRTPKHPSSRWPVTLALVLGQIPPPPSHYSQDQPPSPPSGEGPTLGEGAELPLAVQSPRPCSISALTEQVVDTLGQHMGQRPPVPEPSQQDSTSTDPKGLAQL
Kind of test: Two-electrode voltage clamp of Xenopus oocytes expressing K69C/H319K double mutant rP2X2. Format: cell-based. A general note: Two-electrode voltage clamp holds a large cell at a set potential and records current.

Test [2] deals with T2, wild type rP2X2 (Rattus norvegicus, UniProt P49653).
T2 construct: expressed in transfected cells; host or cells: Xenopus laevis oocytes (RNA injection)
T2 sequence (P49653 1-472): T1 sequence (P49653 1-472 K69C/H319K) with C69K, K319H
Kind of test: Two-electrode voltage clamp of Xenopus oocytes expressing wild type rP2X2. It is filed as cell-based.

Test [3] has as its target T2, wild type rP2X2. As to conditions: cited from earlier work.
Test [4] deals with T3, rP2X2 K308C mutant receptor (Rattus norvegicus, UniProt P49653, K308C).
T3 construct: expressed in transfected cells; host or cells: Xenopus laevis oocytes (RNA injection)
T3 sequence (P49653 1-472 K308C): T1 sequence (P49653 1-472 K69C/H319K) with C69K, K308C, K319H
Description: Two-electrode voltage clamp of Xenopus oocytes expressing K308C mutant rP2X2. Format: cell-based. Particulars: for restoration of ability to respond to ATP after test compound: test compound 1 mM, 15 minutes, then 1,000 µM ATP.

Test [5] deals with T4, rP2X2 K69C mutant receptor (Rattus norvegicus, UniProt P49653, K69C).
T4 construct: expressed in transfected cells; host or cells: Xenopus laevis oocytes (RNA injection)
T4 sequence (P49653 1-472 K69C): T1 sequence (P49653 1-472 K69C/H319K) with K319H
Kind of test: Two-electrode voltage clamp of Xenopus oocytes expressing K69C mutant rP2X2. It is filed as cell-based. Particulars: for restoration of ability to respond to ATP after test compound: test compound 1 mM, 1 minute, then 1,000 µM ATP; for amplitude of response to 100 µM zinc: K69C after AM546 then MTSEA, N = 6; for Response after challenge compound (nA) 100 µM Zn / Response after challenge compound (nA) 1,000 µM ATP / Response after challenge compound (nA) pH 6.5: test compound 50 µM, 5 minutes; for binding to and activation of K69C receptors: tested for responses to zinc, pH 6.5 and ATP, then challenge with AM546 or MTSEA.

The test system of the next test is uninjected oocytes. Kind of test: Two-electrode voltage clamp of uninjected oocytes (control). It is filed as cell-based, Xenopus laevis. Particulars: N = 14. How it is done: This study was carried out in strict accordance with the recommendations in the Guide for the Care and Use of Laboratory Animals of the National Institutes of Health. The protocol was approved by the University Committee on the Use and Care of Animals of the University of Michigan (Protocol 08396-4). The rP2X2 receptors were expressed in defolliculated stage V-VI Xenopus laevis oocytes. Oocytes were harvested using procedures that have been described in detail previously.
RNAs encoding wild type and mutant rP2X2 receptors were synthesized using the mMessage mMachine T7 kit (Life Technologies, Grand Island, NY). Each oocyte was injected with 50 nl of RNA (10–20 ng/µl). Two-electrode voltage clamp experiments were performed 2–5 days after RNA injection. Except where indicated otherwise, recordings were made at a holding potential of −50 mV. Recording electrodes were pulled from thin walled borosilicate glass and had resistances of 0.2–1 MΩ. Currents were recorded with a Turbo TEC-03 or TEC-10 voltage clamp amplifier (npi electronic GmBH, Tamm, Germany). Data acquisition was performed using a Digidata 1322A interface controlled by pCLAMP 9 or 10 (Molecular Devices, Sunnyvale, CA).
To regulate the delivery of most test solutions into the recording chamber, we used a gravity fed valve array. […]

Test [6] has as its system P2X1 mutant homologous to K69A. Particulars: ref [28]; cited from earlier work.
Setting [7] is: AM546-treated K69C, no exogenous ATP.

Numbering of substitutions follows the chain as printed. Where two headings read alike, the source gives them in different places.

Usually EC50 stands for the concentration at which the effect is half-maximal. As for `Nc1ncnc2c1ncn2C1OC(COP(=O)(O)OP(=O)(O)OP(=O)(O)O)C(O)C1O` (stereo not drawn) [ATP, Disodium ATP], the EC50 in test [1] was about 145 µM; on wild type rP2X2 [2] (wild type rP2X2), 32 ± 1 µM; in test [4] (MTSEA-modified K308C), 374 ± 35 µM; in test [5] (MTSEA-modified K69C), 924 ± 102 µM. For the same compound, the inward current entry at wild type rP2X2 [2] (1,000 µM ATP, same RNA concentration as K69C, 'over' refers to magnitude) is recorded as “over −20 µA”. The “Hill Coefficient (typical value for wild type rP2X2)” value on wild type rP2X2 [3] (typical value used to estimate basal ATP levels, ref not given) is listed as 1.5. In addition, the “Hill coefficient (ATP)” value in test [4] (MTSEA-modified K308C) is recorded as 1.3±0.1; in test [5] (MTSEA-modified K69C) it was 1.4±0.1. For the same compound, the ATP response result in test [5] (AM546-modified K69C, 1,000 µM ATP, 'greater than' refers to magnitude) was “greater than −100 nA”.

Take `CSS(C)(=O)=O` [MMTS, Methyl Methanethiosulfonate]: the “restoration of ability to respond to ATP after test compound” value in test [4] and in test [5] was “None of these compounds restored the ability” each time.

Take `C[N+](C)(C)CCSS(C)(=O)=O.[Cl-]` [MTSET, [2-(Trimethylammonium)ethyl] Methanethiosulfonate Chloride]: the “restoration of ability to respond to ATP after test compound” value in test [4] and in test [5] was “None of these compounds restored the ability” each time.

The term IC50 denotes the concentration that inhibits the measured activity by half. `Cc1ccc(C(=O)Nc2ccc(S(=O)(=O)O)c3cc(S(=O)(=O)O)cc(S(=O)(=O)O)c23)cc1NC(=O)c1cccc(NC(=O)Nc2cccc(C(=O)Nc3cc(C(=O)Nc4ccc(S(=O)(=O)O)c5cc(S(=O)(=O)O)cc(S(=O)(=O)O)c45)ccc3C)c2)c1` [suramin, Suramin] came in with an average suramin response in the test on uninjected oocytes of −1.3±1.9 nA. Moreover, at wild type rP2X2 [2] (cells with maximal currents to saturating ATP of about −20 µA), the “outward suramin currents due to inhibition of basal ATP” value was 10–500 nA. For the same compound, the “Hill coefficient (suramin)” value at wild type rP2X2 [2] (no exogenous ATP, N = 11) is 1.2±0.1. Also, the IC50 on wild type rP2X2 [2] (read-out: suramin IC50 (outward current response)) amounted to 8.3 ± 1.1 µM. Besides, in test [6], the IC50 for suramin entry is “normal”. Also, in test [5] (setting [7]), the “Hill coefficient (suramin activation)” value is on record as 1.1±0.1 and the “maximal response to suramin (inward current)” value is −450±51 nA. The response to suramin result in test [5] (K69C prior to AM546 treatment, no exogenous ATP) was “no response”. In test [5] (read-out: suramin EC50 (activation)), the EC50 came out at 52 ± 5 µM.

For `[Cl-].[Cl-].[Zn+2]` [zinc, Zinc chloride], in test [1] (50 µM zinc, after AM546, 'over' refers to magnitude), the “additional inward current in response to zinc” value is “over −6 µA”. The “current in response to zinc alone” value in test [1] (50 µM zinc, before AM546, no exogenous ATP, N = 12) is −2.9±0.9 µA. For the same compound, the “average response to a zinc jump” value with uninjected oocytes (50 µM zinc) is “+8.6±1.9 nA”. Further, the “current as % of the maximum after addition of zinc” value on wild type rP2X2 [2] (20 µM zinc, ATP giving 10% of maximum at pH 7.5) is listed as 80–90%. The “enhancement of the current by a zinc jump” value at wild type rP2X2 [3] (untreated wild type, EC10 ATP, pH 7.5, 20 µM zinc, ref [17], [20]) was “approximately 8 fold”. Besides, the Izinc average current in test [4] (untreated K308C, 100 µM zinc, N = 6) is −5±4 nA. In addition, the “amplitude of response to 100 µM zinc” value in test [5] (with 1,000 µM ATP) is recorded as 2.74±0.47 µA; in test [5] (without ATP), 0.39±0.06 µA.

For the compound Alexa Fluor 488 C5-maleimide [AM-488], in test [5] (then challenge compound AM-546), the “Response after challenge compound (nA) 100 µM Zn” value (shortened to “Response … (nA) 100 µM Zn”) is −10±9 nA, the “Response after challenge compound (nA) 1,000 µM ATP” value (“Response … (nA) 1,000 µM ATP” for short) was −10±3 nA and the “Response after challenge compound (nA) pH 6.5” value (shortened to “Response … (nA) pH 6.5”) is −16±5 nA. In test [5], the “binding to and activation of K69C receptors” value (from here on “binding to and activation”) was “could bind to, but not activate”.

Regarding Alexa Fluor 568 C5-maleimide [AM-568], in test [5] (then challenge compound MTSEA), the “Response … (nA) 100 µM Zn” value is on record as −9±4 nA, the “Response … (nA) 1,000 µM ATP” value was −41±9 nA and the “Response … (nA) pH 6.5” value was −25±0 nA. In addition, the “binding to and activation” value in test [5] is recorded as “could bind to, but not activate”.

On to Alexa Fluor 594 C5-maleimide [AM-594], for which, in test [5] (then challenge compound MTSEA), the “Response … (nA) 100 µM Zn” value is −2±1 nA, the “Response … (nA) 1,000 µM ATP” value is on record as −26±7 nA and the “Response … (nA) pH 6.5” value is −7±5 nA. The “binding to and activation” value in test [5] is “could bind to, but not activate”.
